Values after ≈ are worked out from the molar mass of the structure shown. Active and inactive are the calls of the source. The calls are words filed in the database; no cut-off is given here.
Columns and labels:
[1] = Induction of apoptosis in C57Bl/6 mouse BMDM cells assessed as late apoptotic cells at 20 uM by annexin V-FITC/DAPI staining-based flow cytometric analysis (reference value: 28.4%); assay type: functional, C57BI/6
[2] = Induction of apoptosis in C57Bl/6 mouse BMDM cells assessed as early apoptotic cells at 20 uM by annexin V-FITC/DAPI staining-based flow cytometric analysis (reference value: 0.49%); assay type: functional, C57BI/6
[3] = system: BMDM; assay: Inhibition of IL-6 production in C57Bl/6 mouse BMDM cells at 2.5 to 80 uM pretreated prior to LPS-stimulation measured on day 7 by ELISA; assay type: functional, cell-based; conditions: C57BI/6
[4] = system: BMDM; assay: Decrease in IL-1beta production in C57Bl/6 mouse BMDM cells at 2.5 to 80 uM pretreated for 1 hr prior to ATP-stimulation by ELISA; assay type: functional, cell-based; conditions: C57BI/6
[5] = system: Staphylococcus epidermidis; assay: Antibiofilm activity against Staphylococcus epidermidis ATCC 35984 assessed as 3 hrs pre-established biofilm viable cell count after 20 hrs (reference value: 1 x 10^10 CFU/ml); assay type: functional
[6] = Induction of apoptosis in C57Bl/6 mouse BMDM cells assessed as viable cells at 20 uM by annexin V-FITC/DAPI staining-based flow cytometric analysis (reference value: 46.7%); assay type: functional; conditions: C57BI/6, BMDM, read-out: Activity
[7] = Induction of apoptosis in C57Bl/6 mouse BMDM cells assessed as early apoptotic cells at 80 uM by annexin V-FITC/DAPI staining-based flow cytometric analysis (reference value: 0.49%); assay type: functional, C57BI/6
[8] = system: Escherichia coli; assay: Antibacterial activity against Escherichia coli ATCC 25922 at 658 uM incubated overnight by broth microdilution method; assay type: functional, organism-based
[9] = system: Staphylococcus epidermidis; assay: (§1) Antibiofilm activity against Staphylococcus epidermidis ATCC 35984 assessed as 12 hrs pre-established biofilm viable cell count at 0.16 umol/mesh after 20 hrs by […] using compound impregnated in polypropylene mesh (reference value: 8.6 x 10^9 CFU/ml); assay type: functional
[10] = system: Pseudomonas aeruginosa; assay: Antibacterial activity against Pseudomonas aeruginosa ATCC 27853 at 658 uM incubated overnight by broth microdilution method; assay type: functional, organism-based
[11] = Induction of apoptosis in C57Bl/6 mouse BMDM cells assessed as dead cells at 160 uM by annexin V-FITC/DAPI staining-based flow cytometric analysis (reference value: 24.4%); assay type: functional, C57BI/6
[12] = Induction of apoptosis in C57Bl/6 mouse BMDM cells assessed as viable cells at 2.5 uM by annexin V-FITC/DAPI staining-based flow cytometric analysis (reference value: 46.7%); assay type: functional; conditions: C57BI/6, BMDM, read-out: Activity
[13] = Induction of apoptosis in C57Bl/6 mouse BMDM cells assessed as late apoptotic cells at 2.5 uM by annexin V-FITC/DAPI staining-based flow cytometric analysis (reference value: 28.4%); assay type: functional, C57BI/6
[14] = system: Staphylococcus epidermidis; assay: Antibiofilm activity against Staphylococcus epidermidis ATCC 35984 assessed as inhibition of 12 hrs pre-established biofilm formation at 0.16 umol after 20 hrs by safranin staining-based UV-visible spectroscopic analysis using compound impregnated in polypropylene mesh; assay type: functional, organism-based
[15] = system: Staphylococcus aureus; assay: Antibacterial activity against Staphylococcus aureus ATCC 35556 incubated overnight by broth microdilution method; assay type: functional
[16] = system: BMDM; assay: Increase in IL-1beta production in C57Bl/6 mouse BMDM cells at 2.5 to 80 uM pretreated for 1 hr prior to ATP-stimulation by ELISA; assay type: functional, cell-based; conditions: C57BI/6
[17] = Induction of apoptosis in C57Bl/6 mouse BMDM cells assessed as dead cells at 80 uM by annexin V-FITC/DAPI staining-based flow cytometric analysis (reference value: 24.4%); assay type: functional, C57BI/6
[18] = system: Staphylococcus epidermidis; assay: Antibacterial activity against Staphylococcus epidermidis ATCC 35984 incubated overnight by broth microdilution method; assay type: functional
[19] = system: Staphylococcus epidermidis; assay: Antibiofilm activity against Staphylococcus epidermidis ATCC 35984 assessed as 12 hrs pre-established biofilm viable cell count after 20 hrs (reference value: 1.2 x 10^10 CFU/ml); assay type: functional
[20] = system: Staphylococcus epidermidis; assay: Antibiofilm activity against Staphylococcus epidermidis ATCC 35984 assessed as reduction in 12 hrs pre-established biofilm viable cell count at 0.16 umol after 20 hrs relative to control; assay type: functional
[21] = system: BMDM; assay: Inhibition of IL-6 production in C57Bl/6 mouse BMDM cells at 5 uM pretreated prior to LPS-stimulation measured on day 7 by ELISA; assay type: functional, cell-based; conditions: C57BI/6
[22] = system: Staphylococcus epidermidis; assay: Antibiofilm activity against Staphylococcus epidermidis ATCC 35984 assessed as reduction in 12 hrs pre-established biofilm viable cell count after 20 hrs (reference value: 1.2 x 10^10 CFU/ml); assay type: functional
[23] = system: Staphylococcus epidermidis; assay: Antibiofilm activity against Staphylococcus epidermidis ATCC 35984 assessed as reduction in 24 hrs pre-established biofilm viable cell count after 20 hrs (reference value: 1.4 x 10^10 +/- 2.6 x 10^9 CFU/ml); assay type: functional
[24] = system: Staphylococcus epidermidis; assay: as §1, with “0.08” for “0.16”; assay type: functional
[25] = system: Staphylococcus epidermidis; assay: Antibiofilm activity against Staphylococcus epidermidis ATCC 35984 assessed as inhibition of 3 to 6 hrs pre-established biofilm formation at 0.064 umol/well after 20 hrs by safranin staining-based method; assay type: functional, organism-based
[26] = Induction of apoptosis in C57Bl/6 mouse BMDM cells assessed as early apoptotic cells at 2.5 uM by annexin V-FITC/DAPI staining-based flow cytometric analysis (reference value: 0.49%); assay type: functional, C57BI/6
[27] = system: Staphylococcus epidermidis; assay: as §1, with “0.02” for “0.16”; assay type: functional
[28] = system: Staphylococcus epidermidis; assay: Antibiofilm activity against Staphylococcus epidermidis ATCC 35984 assessed as inhibition of 12 hrs pre-established biofilm formation at 0.064 umol/well after 20 hrs by safranin staining-based method; assay type: functional, organism-based
[29] = Cytotoxicity against C57Bl/6 mouse BMDM cells assessed as cell viability at <=80 uM after 72 hrs by MTS assay; assay type: cell-based, C57BI/6

## CC(C)=CCC[C@H](C)[C@@H]1CC[C@@H](C)c2c(O)cc(C(=O)O)cc21
[1]
  Activity: 27%
[2]
  Activity: 4.05%
[3]
  inhibition: Active
[4]
  Activity: inactive
[5]
  Activity: 0 CFU/ml
[6]
  viability at 20 µM: 62.2%
[7]
  Activity: 0.81%
[8]
  Activity: inactive
[9]
  Activity: 3.9 ×10⁴ CFU/ml
[10]
  Activity: inactive
[11]
  Activity: 0.63%
[12]
  viability at 2.5 µM: 51.4%
[13]
  Activity: 32.7%
[14]
  inhibition: Active
[15]
  MBC: 41 µM (≈ 13 µg/mL)
  MIC: 41 µM (≈ 13 µg/mL)
[16]
  Activity: inactive
[17]
  Activity: 23.9%
[18]
  MBC: 82 µM (≈ 25.9 µg/mL)
  MIC: 82 µM (≈ 25.9 µg/mL)
[19]
  Activity: 6 ×10³ CFU/ml
[20]
  Activity: 5 log10CFU/ml
[21]
  inhibition: Active
[22]
  Activity: 7 log10CFU/ml
[23]
  Activity: 2 log10CFU/ml
[24]
  Activity: 2.7 ×10⁵ CFU/ml
[25]
  inhibition: Active
[26]
  Activity: 2.54%
[27]
  Activity: 9.1 ×10⁸ CFU/ml
[28]
  inhibition: Active
[29]
  Activity: Non-toxic

Source: ChEMBL document CHEMBL3758102, “Serrulatane Diterpenoid from Eremophila neglecta Exhibits Bacterial Biofilm Dispersion and Inhibits Release of Pro-inflammatory Cytokines from Activated Macrophages” (J Nat Prod, 2015)
